Measurements as given in US20240365736A1, “COMPOSITIONS AND METHODS FOR TARGETED DEGRADATION OF PROTEINS IN A PLANT CELL” (Oerth Bio LLC, priority 2021, published 2024).

Legend:
[1] = target: plant cereblon (Cereblon ligand binding domain) (Arabidopsis thaliana, UniProt F4ISN3); assay: Ligand binding affinity by microscale thermophoresis (Monolith), labeled Cereblon ligand binding domain; conditions: MST, RED-tris-NTA His-tag labeled Cereblon ligand binding domain, 25 nM labeled protein; binding to plant cereblon; read-out: Plant CRBN Kd
Description: The binding affinity of the described test compounds was determined using RED-tris-NTA His-tag labeled Cereblon ligand binding domain. The labeling of the Cereblon ligand binding domain was performed according to manufacturer's protocol in assay buffer (50 nM protein: 10 nM dye, 5:1 protein to dye ratio). 200 μM compound in assay buffer (10 mM HEPES pH 7.4, 300 mM NaCl, 0.1% Pluronic-147, 10% Glycerol, 5 mM DTT) was created from 10 mM compound stock in DMSO. A 16-point serial dilution was achieved by taking 10 μL of the 200 μM first well and diluting into 10 μL of assay buffer in the second well, which was diluted in 10 μL assay buffer in the third well, and so on. DMSO content of each well matched to 2%. 10 μL of 50 nM CRBN was added to each well and mixed thoroughly by pipetting. Final assay concentration of 25 nM labeled protein and highest compound concentration of 100 μM, 1% DMSO.
Samples were incubated at room temperature in the dark for five minutes, then collected in standard Monolith capillaries. Assay was performed on the Monolith NT.155Pico using automated excitation level and medium power on M.O. Control software. Analysis of MST traces and determination of dissociation constants and was conducted in M.O. Affinity Analysis software, and the results are shown in Table 2 below.

[2] = system: Matricaria recutita, Diplotaxis tenuifolia, Agrostis spp., Poa annua, or Arabidopsis thaliana; assay: Plant phenotyping assay (herbicidal phenotypes, 96-well plates); assay type: in vivo; conditions: visual score of herbicidal phenotypes after seven days; 238, 475, 950, and 1900 g ai/ha (50-400 uM); also: key: '+++' is highly active; '++' is moderately active; '+' is weakly active; '−' is inactive

Chain of plant cereblon (Cereblon ligand binding domain) (F4ISN3 1-547): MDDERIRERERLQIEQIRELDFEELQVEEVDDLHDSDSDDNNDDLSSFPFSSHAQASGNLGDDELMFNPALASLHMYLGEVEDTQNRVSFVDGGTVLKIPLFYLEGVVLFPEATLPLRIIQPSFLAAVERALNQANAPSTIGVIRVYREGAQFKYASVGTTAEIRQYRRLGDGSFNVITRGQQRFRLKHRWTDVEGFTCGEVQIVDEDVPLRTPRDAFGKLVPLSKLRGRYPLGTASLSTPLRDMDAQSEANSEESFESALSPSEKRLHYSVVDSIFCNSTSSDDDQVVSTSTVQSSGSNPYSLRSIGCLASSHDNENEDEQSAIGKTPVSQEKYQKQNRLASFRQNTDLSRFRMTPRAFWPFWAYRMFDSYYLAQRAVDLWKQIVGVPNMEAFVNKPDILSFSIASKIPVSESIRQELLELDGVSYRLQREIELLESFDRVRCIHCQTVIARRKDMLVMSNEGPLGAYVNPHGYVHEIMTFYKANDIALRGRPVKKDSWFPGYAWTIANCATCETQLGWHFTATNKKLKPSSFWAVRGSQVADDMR

| Structure (SMILES) | Kd [1] [nM] | Plant Activity [2] |
| --- | --- | --- |
| COCCOCC1COCCN1Cc1ccc(COc2cccc3c2CN([C@H]2CCC(=O)NC2=O)C3=O)cc1 (stereo partly drawn) [Example 11, (3S)-3-(4-((4-((3-((2-methoxyethoxy)methyl)morpholino)methyl)benzyl)-oxy)-1-oxoisoindolin-2-yl)piperidine-2,6-dione] | < 100 |  |
| COCCNCC1COCCN1Cc1ccc(COc2cccc3c2CN([C@H]2CCC(=O)NC2=O)C3=O)cc1 (stereo partly drawn) [Example 12, (3S)-3-[4-[[4-[[3-[(2-Methoxyethylamino)methyl]morpholin-4-yl]methyl]-phenyl]methoxy]-1-oxo-isoindolin-2-yl]piperidine-2,6-dione] | 100 to 1000 |  |
| COCCNC(=O)C1CCN(Cc2ccc(COc3cccc4c3CN([C@H]3CCC(=O)NC3=O)C4=O)cc2)CC1 [Example 16, (S)-1-(4-(((2-(2,6-dioxopiperidin-3-yl)-1-oxoisoindolin-4-yl)oxy)methyl)benzyl)-N-(2-methoxyethyl)piperidine-4-carboxamide] | 100 to 1000 |  |
| COCCNC(=O)C1CCCN(Cc2ccc(COc3cccc4c3CN(C3CCC(=O)NC3=O)C4=O)cc2)C1 [Example 14, 1-(4-(((2-((S)-2,6-dioxopiperidin-3-yl)-1-oxoisoindolin-4-yl)oxy)methyl)benzyl)-N-(2-methoxyethyl)piperidine-3-carboxamide] | 100 to 1000 |  |
| CCOC(=O)[C@@H](C)Oc1ccc(Oc2ccc(OCCOCCOCCN3CCN(c4ccc5c(c4)C(=O)N(C4CCC(=O)NC4=O)C5=O)CC3)cn2)cc1 (stereo partly drawn) [Compound 6-A, Ethyl (2R)-2-(4-((5-(2-(2-(2-(4-(2-(2,6-dioxopiperidin-3-yl)-1,3-dioxoisoindolin-5-yl)piperazin-1-yl)ethoxy)ethoxy)ethoxy)pyridin-2-yl)oxy)phenoxy)propanoate] |  | + |
| COc1cnc(OC)n2nc(NS(=O)(=O)c3c(OCCOCCOCCN4CCC(CCCN5CCN(c6ccc7c(c6)C(=O)N(C6CCC(=O)NC6=O)C7=O)CC5)CC4)cccc3C(F)(F)F)nc12 (stereo not drawn) [Compound 4-J, N-(5,8-Dimethoxy-[1,2,4]triazolo[1,5-c]pyrimidin-2-yl)-2-(2-(2-(2-(4-(3-(4-(2-(2,6-dioxopiperidin-3-yl)-1,3-dioxoisoindolin-5-yl)piperazin-1-yl)propyl)piperidin-1-yl)ethoxy)ethoxy)ethoxy)-6-(trifluoromethyl)benzenesulfonamide] |  | − |
| COc1cnc(OC)n2nc(NS(=O)(=O)c3c(OCCOCCOCCOCCOCCCN4CCN(c5ccc6c(c5)C(=O)N(C5CCC(=O)NC5=O)C6=O)CC4)cccc3C(F)(F)F)nc12 (stereo not drawn) [Compound 4-R, N-(5,8-Dimethoxy-[1,2,4]triazolo[1,5-c]pyrimidin-2-yl)-2-((15-(4-(2-(2,6-dioxopiperidin-3-yl)-1,3-dioxoisoindolin-5-yl)piperazin-1-yl)-3,6,9,12-tetraoxapentadecyl)oxy)-6-(trifluoromethyl)benzenesulfonamide] |  | − |
| CS(=O)(=O)c1ccc(C(=O)C2C(=O)CCCC2=O)c(Cl)c1OCCOCCOCCOc1ccc2c(c1)C(=O)N(C1CCC(=O)NC1=O)C2=O (stereo not drawn) [Compound 3, 5-[2-[2-[2-[2-chloro-3-(2,6-dioxocyclohexanecarbonyl)-6-methylsulfonyl-phenoxy]ethoxy]ethoxy]ethoxy]-2-(2,6-dioxo-3-piperidyl)isoindoline-1,3-dione] |  | ++ |
| CC(Oc1ccc(Oc2nc3ccc(F)cc3s2)cc1)C(=O)Nc1ccc(OCCCOCCOCCOCCOc2ccc3c(c2)C(=O)N(C2CCC(=O)NC2=O)C3=O)cc1F (stereo not drawn) [Compound 8-C, N-(4-(3-(2-(2-(2-((2-(2,6-Dioxopiperidin-3-yl)-1,3-dioxoisoindolin-5-yl)oxy)ethoxy)ethoxy)-ethoxy)propoxy)-2-fluorophenyl)-2-(4-((6-fluorobenzo[d]thiazol-2-yl)oxy)phenoxy)propanamide] |  | + |
| O=C(COc1ccc(Oc2cncc(C(F)(F)F)c2)cc1)NCCCOCCOCCOCCOc1ccc2c(c1)C(=O)N(C1CCC(=O)NC1=O)C2=O (stereo not drawn) [Compound 7-B, N-(3-(2-(2-(2-((2-(2,6-dioxopiperidin-3-yl)-1,3-dioxoisoindolin-5-yl)oxy)ethoxy)ethoxy)ethoxy)propyl)-2-(4-((5-(trifluoromethyl)pyridin-3-yl)oxy)phenoxy)acetamide] |  | + |

Now from value to compound, other results behind:

| Kd [1] [nM] | Structure (SMILES) | Plant Activity [2] |
| --- | --- | --- |
| > 1000 | Nc1cccc2c1C(=O)N(C1CCC(=O)NC1=O)C2=O (stereo not drawn) [Ref 2, Pomalidomide, reference compound] |  |
| < 100 | COCCOc1cc(OCc2ccc(CN3CCOCC3)cc2)c2c(c1)C(=O)N([C@H]1CCC(=O)NC1=O)C2 [Example 21, (3S)-3-[6-(2-methoxyethoxy)-4-[[4-(morpholinomethyl)-phenyl]methoxy]-1-oxo-isoindolin-2-yl]piperidine-2,6-dione] |  |
| 100 to 1000 | COCCNc1cc(CN2CCOCC2)ccc1COc1cccc2c1CN([C@H]1CCC(=O)NC1=O)C2=O [Example 23, (S)-3-(4-((2-((2-methoxyethyl)amino)-4-(morpholinomethyl)-benzyl)oxy)-1-oxoisoindolin-2-yl)piperidine-2,6-dione] |  |
| 100 to 1000 | COCCNC(=O)C1CCN(Cc2ccc(COc3cccc4c3CN(C3CCC(=O)NC3=O)C4=O)cc2)C1 [Example 18, 1-(4-(((2-((S)-2,6-dioxopiperidin-3-yl)-1-oxoisoindolin-4-yl)oxy)methyl)benzyl)-N-(2-methoxyethyl)pyrrolidine-3-carboxamide] |  |
| < 100 | COCCNc1cc(COc2cccc3c2CN([C@H]2CCC(=O)NC2=O)C3=O)ccc1CN1CCOCC1 [Example 22, (3S)-3-[4-[[3-(2-methoxyethylamino)-4-(morpholinomethyl)-phenyl]methoxy]-1-oxo-isoindolin-2-yl]piperidine-2,6-dione] |  |
| 100 to 1000 | COCCOCC1CCN(Cc2ccc(COc3cccc4c3CN([C@H]3CCC(=O)NC3=O)C4=O)cc2)CC1 [Example 20, (S)-3-(4-((4-((4-((2-methoxyethoxy)methyl)piperidin-1-yl)methyl)-benzyl)oxy)-1-oxoisoindolin-2-yl)piperidine-2,6-dione] |  |
| 100 to 1000 | COCCNC(=O)c1cc(COc2cccc3c2CN([C@H]2CCC(=O)NC2=O)C3=O)ccc1CN1CCOCC1 [Example 24, (S)-5-(((2-(2,6-dioxopiperidin-3-yl)-1-oxoisoindolin-4-yl)oxy)methyl)-N-(2-methoxyethyl)-2-(morpholinomethyl)benzamide] |  |
| > 1000 | O=C1CCC(N2C(=O)c3ccccc3C2=O)C(=O)N1 (stereo not drawn) [Ref 1, Thalidomide, reference compound] |  |
